Source: ChEMBL document CHEMBL1159354, “Sphingolipids from Bombycis Corpus 101A and their neurotrophic effects” (J Nat Prod, 2003)
Calls of active or inactive are those of the source. The calls are words filed in the database; no cut-off is given here.

Tests used:
PC-12 [1] = assay: Induction of neurite outgrowth in rat PC12 cells assessed as neurite length at 10 uM; assay type: functional, cell-based
PC-12 [2] = assay: Induction of neurite outgrowth in rat PC12 cells assessed as neurite length; assay type: functional, cell-based

CCCCCCC/C=C/C=C/[C@@H](O)[C@H](CO)NC(=O)CCCCCCCCCCCCCCCCCCC was tested, and the Activity (PC-12 [1]) was “Active”.

CCCCCCCCC/C=C/[C@@H](O)[C@H](CO)NC(=O)CCCCCCCCCCCCCCCCCCC was tested, and the Activity (PC-12 [2]) was “Active”.

In the case of CCCCCCCCC/C=C/[C@@H](O)[C@H](CO)NC(=O)CCCCCCCCCCCCCCCCC, the Activity (PC-12 [2]) is reported as “Active”.

CCCCCCC/C=C/C=C/[C@@H](O)[C@H](CO)NC(=O)CCCCCCCCCCCCCCCCCCCCC was tested, and the Activity (PC-12 [1]) was “Active”.
